Results from patent publication US9458463B2, “Method for treatment of diabetes by a small molecule inhibitor for GRK5” (MAX-PLANCK-GESELLSCHAFT ZUR FÖRDERUNG DER WISSENSCHAFTEN …, priority 2010, dated 2016).
Where “and” joins values, the source holds several entries; their conditions need not be identical. Equal entries are not always repeated.

Key:
matured C2C12 myotubes = assay: 2-NBDG uptake in matured C2C12 myotubes; assay type: cell-based, mouse; settings: relative to DMSO = 1; n = 2
Description: (§1) Inhibition of GRK5 led to an increased uptake of the fluorescent glucose analogue 2-NBDG in matured C2C12 myotubes (FIG. 20) and 3T3-L1 adipocytes (FIG. 21) for all five compounds (summarized in table 7). In line with C2C12 cells, the matured myotubes display an increase 2-NBDG uptake after inhibition of GRK5 by compounds 1-5.

3T3-L1 adipocytes = assay: 2-NBDG uptake in matured 3T3-L1 adipocytes; assay type: cell-based; settings: relative to DMSO = 1; n = 2
Description: as §1

full length GRK5 = biological target: T1, full length GRK5 (Homo sapiens, UniProt P34947); assay: GRK5 kinase activity assay, ADP Glo Kinase Assay technology (Promega); assay type: biochemical
T1 construct: 6/2 fold concentrated full length GRK5 (Millipore, #14-714) in reaction buffer; purchased Millipore 14-714
T1 sequence (P34947 whole entry): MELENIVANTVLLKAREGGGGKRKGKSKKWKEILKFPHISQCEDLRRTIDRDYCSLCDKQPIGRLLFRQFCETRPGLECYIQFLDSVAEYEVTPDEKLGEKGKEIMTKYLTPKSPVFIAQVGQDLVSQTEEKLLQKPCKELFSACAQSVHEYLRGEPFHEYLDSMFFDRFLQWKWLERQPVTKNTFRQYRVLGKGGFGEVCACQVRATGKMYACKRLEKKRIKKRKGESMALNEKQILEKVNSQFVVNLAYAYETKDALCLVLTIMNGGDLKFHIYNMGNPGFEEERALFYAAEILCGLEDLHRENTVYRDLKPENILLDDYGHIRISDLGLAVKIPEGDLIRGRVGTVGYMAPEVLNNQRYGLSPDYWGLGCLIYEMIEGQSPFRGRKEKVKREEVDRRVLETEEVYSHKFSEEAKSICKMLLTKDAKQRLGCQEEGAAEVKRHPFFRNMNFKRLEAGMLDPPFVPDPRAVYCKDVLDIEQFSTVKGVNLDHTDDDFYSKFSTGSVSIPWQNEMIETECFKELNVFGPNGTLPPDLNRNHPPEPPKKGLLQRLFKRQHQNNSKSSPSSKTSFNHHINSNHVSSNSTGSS
Method in brief: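 Casein (10 μM) phosphorylation with 100 μM ATP in 20 mM MES pH 6.0, 1 mM DTT, 10 mM MgCl2, 0.01% Tween20, 120 min at room temperature; ADP quantified by ADP-Glo luminescence.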

C2C12 cells [1] = assay: 2-NBDG glucose uptake in C2C12 cells (flow cytometry); assay type: cell-based, mouse; settings: for 2-NBDG Glucose Uptake [%]: group II, at 5 μM, 1 h, 100 μM 2-NBDG
Method: (§2) 2-NBDG is a fluorescently-labeled deoxyglucose analog that is commonly used to directly monitor glucose uptake by living cells. For 2-NBDG detection, cells were cultured for 1 h together with 5 μM of a small molecule in glucose free media supplied with 100 μM 2-NBDG at 37° C. before collecting. Furthermore, as internal controls, samples of glucose free media, rFc4espectively glucose free media with test compound, were tested. Subsequently, cells were washed, trypsinized and harvested in ice-cold PBS before centrifuged at 1.6×10^3 rpm at 4° C. Cells were analyzed by flow cytometry (FACS Calibur, BD Bioscience, respectively a BD Accuri® C6 Flow Cytometer).
as §2, with “an inventive compound” for “a small molecule”, “media,” for “media, rFc4espectively”, “compound, respectively glucose free media supplied with 100 μM 2-NBDG” for “compound,”

3T3-L1 pre-adipocytes = assay: 2-NBDG uptake in 3T3-L1 pre-adipocytes; assay type: cell-based
beta TC6 cells [2] = assay: 2-NBDG uptake in beta TC6 cells; assay type: cell-based, mouse; settings: n = 3, FIG. 18
[3] = tested on: beta-TC6 insulinoma cells; assay: Insulin release by beta-TC6 cells, rat/mouse insulin ELISA, high glucose; assay type: cell-based
Method: (§3) Release of insulin was detected using a rat/mouse insulin ELISA.
After incubation, the supernatant of the beta-TC6 insulinoma cells was diluted 1:20. The insulin release was measured with rat/mouse insulin ELISA (Merck Millipore Darmstadt, Cat. # EZRMI-13K) by following the manufacture protocol. The enzyme activity of the horseradish peroxidase of the immobilized biotinylated antibodies was monitored spectrophotometrically by the increased absorbency at 490 nm, and corrected by the absorbency at 610 nm.
as §3
The effect on the insulin release of each kinase depletion was monitored by using a rat/mouse insulin ELISA.
For the validation of the negative modulating kinases SCYL1, GRK5, and ADCK1, the target genes were depleted using four different siRNA-sequences each (FIG. 2A-D). The gene-depletion was measured via mRNA-levels after 72 hours while the insulin release was measured using a rat/mouse insulin ELISA after two hours incubation.

beta TC6 cells [4] = assay: Cell viability assay (CellTiter-Glo / automated cell number) in beta TC6; assay type: cell-based; settings: Mus musculus, read-out: Inhibition of cell viability IC50
Method in brief: (§4)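 ATP read by CellTiter-Glo luminescence after 10 min lysis at RT. Imaging variant: 10000 cells/well treated 72 h, then fixed and stained with Hoechst 33342 (20 μg/ml, 30 min, 37 °C). Nuclei counted automatically over six fields at 10×, compared with untreated controls, giving IC50.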

3T3-L1 cells = assay: Cell viability assay (CellTiter-Glo / automated cell number) in 3T3-L1; assay type: cell-based; settings: Mus musculus, read-out: Inhibition of cell viability IC50
Method in brief: as §4

C2C12 cells [5] = assay: Cell viability assay (CellTiter-Glo / automated cell number) in C2C12; assay type: cell-based; settings: Mus musculus, read-out: Inhibition of cell viability IC50
Method in brief: as §4

HepG2 cells = assay: Cell viability assay (CellTiter-Glo / automated cell number) in HepG2; assay type: cell-based; settings: Homo sapiens, read-out: Inhibition of cell viability IC50
Method in brief: as §4

GRK5 = biological target: T2, GRK5 (Homo sapiens, UniProt P34947); assay: Millipore KinaseProfiler radiometric filtration binding assay; assay type: biochemical; settings: group II; Millipore KinaseProfiler (Table 10)
T2 construct: purchased Millipore (KinaseProfiler service)
T2 sequence (P34947 whole entry): as above
Method: (§5) As alternative, IC50 values are determined by a radiometric based filtration binding assay, namely Millipore KinaseProfiler™. GRK5 is incubated with 8 mM MOPS pH7.0, 0.2 mM EDTA, 2 mg/mL casein, 10 mM MgAcetate and […] (specific activity approx. 500 cpm/pmol, concentration as required). The reaction is initiated by the addition of the MgATP mix. After incubation for 40 minutes at room temperature, the reaction is stopped by the addition of 3% phosphoric acid solution. 10 μL of the reaction is then spotted onto a P30 filtermat and washed three times for 5 minutes in 75 mM phosphoric acid and once in methanol prior to drying and scintillation counting.
as §5, with “IC50” for “As alternative, IC50”, “pH 7.0,” for “pH7.0,”

beta-TC6 cells = assay: Insulin HTRF assay on beta-TC6 supernatant (relative activity Ar); assay type: cell-based, mouse; settings: group I
Description: For further screening of compounds derived from compounds described above for their ability to regulate insulin release an insulin HTRF® (Homogeneous Time-Resolved Fluorescence; Cisbio International, France) was used. This assay is based on two antibodies against insulin binding to different epitopes of insulin. One of these antibodies is coupled to Europium (Ab-Eu-Cryptate) and the other one to the fluorophore XL665 (Ab-XL665). If the insulin is secreted into the supernatant of cell culture, both antibodies can bind to insulin and come therefore into close proximity, which allows upon excitation that energy transfer between (FRET) the long-life fluorescent donor Europium (cryptate) and the acceptors XL665. FRET increases proportionally with insulin concentration.
On day 1, 15 k beta-TC6 cells per well were seeded for 24 or 48 h in 50 μL complete medium. On day 2 or respective on day 3, the medium is removed and cells are washed with 60 μL 1×PBS and 20 μL induction buffer is added using BioTek washer. Subsequently, 10 μL Sunitininb (5-μM f.c.) or the test compound in induction buffer; 0.5% f.c. DMSO (CyBi-well) is transferred to the cells. The cells are then incubated at 37° C. for 2, 3, 4 h. […]
First 10 μL supernatant is transferred from the cell plates in HTRF plates (CyBi-well). […] Finally HTRF is measured on ViewLux ultra high throughput microplate imager (PerkinElmer). […]

With `Nc1cccc(-c2cc3cnc(Nc4cccnc4)cc3[nH]2)c1` [C2] the “2-NBDG uptake Ratio, C2C12 myotubes matured” value (matured C2C12 myotubes) was 2.383, the “2-NBDG uptake Ratio, 3T3-L1 adipocytes matured” value (3T3-L1 adipocytes) was 2.234 and the “Inhibition of Grk5 [%]” value (full length GRK5; primary screen, final assay concentration 100 μM) was 60.0%. The “2-NBDG glucose uptake, Ratio (average, DMSO = 1)” value (“2-NBDG glucose uptake, Ratio” for short) (C2C12 cells [1]; C2C12 cells, n = 3, FIG. 17) was 2.127, the “2-NBDG glucose uptake, Ratio” value (3T3-L1 pre-adipocytes; 3T3-L1 pre-adipocytes, n = 3, FIG. 19) was 1.111 and the “2-NBDG glucose uptake, Ratio” value (beta TC6 cells [2]) was 1.529. For the same compound, the “Insulin release (average, relative to DMSO = 1)” value ([3]; beta-TC6, 5 μM) was 2.58±0.94 and 2.58 and the “Insulin release (average, relative to DMSO = 1)” value ([3]; beta-TC6, 10 μM) was 2.01±0.19 and 2.01.
Work on `C[C@@H](NC(=O)c1ccc2c(c1)/C(=C/Nc1ccc(CN3CCCCC3)cc1)C(=O)N2)c1ccc(Cl)cc1` [II.73, (3Z)-N-[(1R)-1-(4-chlorophenyl)ethyl]-2-oxo-3-({[4-(piperidin-1-ylmethyl)phenyl]amino}methylene)indoline-5-carboxamide] yielded an IC50 (beta TC6 cells [4]) of 730 nM, an IC50 (full length GRK5; group II, ADP Glo Kinase Assay (Table 9-B)) of 100 to 1000 nM and an IC50 (3T3-L1 cells) of 2730 nM. The IC50 (C2C12 cells [5]) was 2330 nM, the “2-NBDG Glucose Uptake [%]” value (C2C12 cells [1]) was 127% and the IC50 (HepG2 cells) was 890 nM. The IC50 (GRK5) was 100 to 1000 nM.
`C[C@@H](NC(=O)c1ccc2c(c1)/C(=C/c1ccc(C(=O)N3CCN(C)CC3)cc1)C(=O)N2)c1ccccc1` [II.143, (3Z)-3-[4-(4-methyl-piperazine-1-carbonyl)-benzylidene]-2-oxo-2,3-dihydro-1H-indole-5-carboxylic acid (1R)-(1-phenyl-ethyl)-amide] was tested, and the “2-NBDG Glucose Uptake [%]” value (C2C12 cells [1]) was 72%.
For `Nc1cccc(-c2cc3cnc(Nc4cccnc4)cc3[nH]2)c1` [compound 2, 2-(3-aminophenyl)-N-(3-pyridyl)-1H-pyrrolo[3,2-c]pyridin-6-amine], the “Glucose uptake (2-NBDG) in 3T3-L1 pre-adipocytes” value (3T3-L1 pre-adipocytes; GRK5 screen compounds) was “stimulated”.
For `COc1cc(Nc2nccc3c2cc(-c2ccc(C(=O)N(C)C)cc2)n3C)cc(C(F)(F)F)c1` [compound 220, N,N-dimethyl-4-[1-methyl-4-(3-methoxy-5-(trifuloromethyl)phenylamino)pyrrolo[3,2-c]pyridin-2-yl]benzamide], the “Ar (relative activity)” value (beta-TC6 cells) was “+ (0% < Ar < 30%)”.
With `CS(=O)(=O)c1ccc(Nc2nccc3[nH]c(-c4ccccc4)cc23)cc1` [compound 324, N-(4-methylsulfonylphenyl)-2-phenyl-1H-pyrrolo[3,2-c]pyridin-4-annine] the “Ar (relative activity)” value (beta-TC6 cells) was “+++ (50% ≦ Ar < 100%)”.
